Patent publication US10017535B2, “Amphiphilic compounds with neuroprotective properties” (USTAV ORGANICKE CHEMIE A BIOCHEMIE AV CR, v.v.i., priority 2014, dated 2018)
Like-named read-outs stand apart in the source and are kept apart here.

Tests used:
[1] = biological target: T1, NR1-1a/NR2B NMDA receptor (Rattus norvegicus, UniProt P35439+Q00960); assay: Patch-clamp inhibition of glutamate-evoked currents at recombinant NMDA receptors in transfected HEK293 cells; format: cell-based; conditions: for IC50: calculated from relative steroid-induced inhibition, Hill's coefficient 1.2, read-out: IC50
T1 construct: expressed in transfected cells; host or cells: HEK293 cells (ATCC CRL1573)
Method in brief: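 HEK293 cells co-transfected with rat NR1-1a/NR2B plus GFP were whole-cell patch-clamped 16-40 h post-transfection at −60 mV. Currents were evoked by 1 mmol·l^−1 glutamate with 10 μmol·l^−1 glycine in ECS pH 7.3, and steroid was co-applied in DMSO via fast perfusion. IC50 came from relative inhibition.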

[2] = biological target: T1, NR1-1a/NR2B NMDA receptor; conditions: 100 μmol·l^−1 pregnanolone sulfate, recombinant NR1/NR2B receptors, n=5, cited from earlier work
[3] = test system: NMDA receptors on hipocampal neurones; conditions: 100 μmol·l^−1 pregnanolone sulfate, responses to 100 μmol·l^−1 NMDA, n=5; cited from earlier work
[4] = test system: laboratory mice, strain CD-1; format: in vivo; conditions: intraperitoneally, 1 mg/kg; further: key: −: the desired effect was not observed; −/+: the desired effect was insufficient; +: the desired effect was observed
Description: (§1) In the Experimental Part 1 were used adults (30-35 g) male laboratory mice, strain CD-1 from Velaz facility, Czech Republic. Mice were housed in plastic boxes with a 12-hour light cycle (lights on at 7:00 pm). Mice had free access to food and water.
Thus there were prepared solutions of the four steroids for application rates of 0.1, 1, 10 and 100 mg/kg.
Laboratory mouse was chosen as a model organism for this experiment. The following experiments were performed as described in Front Behay. Neurosci.
The purpose of the primary behavioral testing was quickly determined the effect of compounds on CNS dependent functions and any signs of toxicity. A simplified modification Irwin test was selected with respect to the behavioral profile of NMDA receptor antagonists. Mice were tested individually. The study drug was administered intraperitoneally (Table 3) at a dose of 1 mg/kg. The control group consisted of individuals that received the CDX solution or saline.

[5] = test system: laboratory mice, strain CD-1; assay: Open field test (locomotor activity, sedative effect); on Open Field Test No Evidence of Hyperlocomotion: key: −: the desired effect was not observed; −/+: the desired effect was insufficient; +: the desired effect was observed; on Sedative Effect The Rapid Onset of Sedation at a Dose of 100 mg/kg: key: −: the desired effect was not observed; −/+: the desired effect was insufficient; +: the desired effect was observed; format: in vivo; conditions: for pathway in open field: dose 10 and 100 mg/kg, vs intact mice; for locomotor activity over time: higher dose of 10 resp. 100 mg/kg; for Open Field Test No Evidence of Hyperlocomotion / Sedative Effect The Rapid Onset of Sedation at a Dose of 100 mg/kg: intraperitoneally; for Open Field Test No Evidence of Hyperlocomotion: 0.1-100 mg/kg; for hyperlocomotion in open field: lower doses (below 10 mg/kg)
Description: as §1
Amphiphilic steroid compounds were dissolved in a solution of 3 g (2-hydroxypropyl)-β-cyclodextrin (CDX, Sigma-Aldrich) and 157 mg of citric acid ([…], Sigma-Aldrich) in 30 ml of distilled water, the pH was adjusted to 7.4 using sodium hydroxide (NaOH, Sigma-Aldrich). Thus there were prepared solutions of the four steroids for application rates of 0.1, 1, 10 and 100 mg/kg.
The efficacy of the studied compounds was compared to known NMDA antagonist is memantine (Sigma-Aldrich) at a dose of 5 mg/kg in rats, ketamine (Vétoquinol) at 10 mg/kg and dizocilpine (MK-801) (Sigma-Aldrich) at a dose of 0.3 mg/kg in mice. These three compounds were dissolved in saline (B Braun).
The substances at dose 0.1-100 mg/kg were administered before the test to mice intraperitoneally. As controls were used intact mice and mice that received CDX solution. Also, MK-801 (0.3 mg/kg) was used for comparison of effects of noncompetitive antagonist of NMDA receptors. From the experiment was evaluated overall track anywhere in the arena as an indicator of locomotor activity. In addition, it was judged a ten-minute segments track during each experiment. Based on these values, it was possible to determine the latency time of onset of action and changes in locomotor activity over time.
In this arrangement, the sedative effect of the studied compounds at the highest dose was evaluated. […] Over time was monitored locomotor activity and possible changes characterized by tremor, ataxia, restlessness, or sedation or general anesthesia (absence of response to stimuli, decreased muscle tone).

[6] = test system: NMDA lesion of the dorsal hippocampus in rats; assay: Active allothetic place avoidance (AAPA) after bilateral excitotoxic NMDA lesion of dorsal hippocampus; format: in vivo, rat Long-Evans strain; conditions: for maximum time avoiding the sector, fourth session of AAPA / number of entries into the forbidden sector, fourth session of AAPA: 1 mg/kg after surgery, vs NMDA group
Description: In the Experimental Part 2 were used adult (3 months old, 300-400 g) male rat Long-Evans strain. The animals come from herds Institute of Physiology ASCR. The rats were housed in clear plastic boxes with the same light cycle as in mice. Animals had free access to food and water. All experiments were carried out in the light of clay. All experiments were carried out in accordance with the Law on protection of animals against cruelty.
The anesthetized rats were used in operations isoflurane (3.5%, Baxter). To recall excitotoxic lesion of the dorsal hippocampus was applied 0.05 mol·l^−1 solution of NMDA (Sigma-Aldrich) in 0.4 mol·l^−1 phosphate buffer solution prepared by mixing 356 g Na2HPO4.12H2O (Mw358.14) in 4.2 l of distilled water and a solution of 62.4 g NaHPO4. 2H2O (Mw156.01) in 0.8 l of distilled water. The pH of the resulting solution of NMDA was adjusted to 7.4 with NaOH.
In this experiment, the neuroprotective effects were evaluated for amphiphilic steroid compounds. The procedure was performed according to Neuropharmacology 61, 61-68 (2011)
The rats were randomly divided into eleven groups. The control group included operated animals, which were injected by phosphate buffer […] into the hippocampus. In the second group, the animals had NMDA lesions of the hippocampus. The animals of the third group were applied clinically used NMDA antagonist memantine at a dose of 5 mg/kg after NMDA lesion. The other groups were administered the compounds at a dose of 1 mg/kg.
The test was performed in rotating arena with prohibited sector in the form of a circular sector (60°). If the rat entered the sector, its limbs received weak electrical impulse.
Test memory and spatial cognition in rats using AAPA was evaluated over four sessions, which are in healthy rats sufficient to achieve asymptotic level (Behay. Brain. Res. 189, 139-144 (2008)). To evaluate memory and spatial cognition was used data from the fourth session, and the number of entries into the forbidden sector and the maximum avoidance sector. […] After the experiment, the localization of the lesion was histologically verified.
Data were analyzed using the non parametric test of Maim Whitney criteria using the GraphPad. The difference was considered significant for p<0.05, for a non-significant tendency then for 0.05<p<0.075.

[7] = test system: laboratory mice, strain CD-1; assay: Passive avoidance test (aversive motivated memory); format: in vivo; on Passive Avoidance Test No Memory Violation: key: −: the desired effect was not observed; −/+: the desired effect was insufficient; +: the desired effect was observed
Description: as §1
Aversive motivated memory test was evaluated on the basis of latency input into the preferred, but unpleasant sensation associated with delivery device.

[8] = test system: laboratory mice, strain CD-1; assay: Forced swimming test (antidepressant effect); format: in vivo
Description: as §1
This assay was used to monitor the antidepressant effect. Animals float 6 minutes in acrylic cylinder in water at 24° C. A period of immobility is evaluated. The reduction is a manifestation of anti-depressant properties of drugs.

[9] = HEK293, read-out: Mean % change ± SD
[10] = memantine 5 mg/kg after NMDA lesion

T1 sequence (Q00960 27-1482, other chains not shown): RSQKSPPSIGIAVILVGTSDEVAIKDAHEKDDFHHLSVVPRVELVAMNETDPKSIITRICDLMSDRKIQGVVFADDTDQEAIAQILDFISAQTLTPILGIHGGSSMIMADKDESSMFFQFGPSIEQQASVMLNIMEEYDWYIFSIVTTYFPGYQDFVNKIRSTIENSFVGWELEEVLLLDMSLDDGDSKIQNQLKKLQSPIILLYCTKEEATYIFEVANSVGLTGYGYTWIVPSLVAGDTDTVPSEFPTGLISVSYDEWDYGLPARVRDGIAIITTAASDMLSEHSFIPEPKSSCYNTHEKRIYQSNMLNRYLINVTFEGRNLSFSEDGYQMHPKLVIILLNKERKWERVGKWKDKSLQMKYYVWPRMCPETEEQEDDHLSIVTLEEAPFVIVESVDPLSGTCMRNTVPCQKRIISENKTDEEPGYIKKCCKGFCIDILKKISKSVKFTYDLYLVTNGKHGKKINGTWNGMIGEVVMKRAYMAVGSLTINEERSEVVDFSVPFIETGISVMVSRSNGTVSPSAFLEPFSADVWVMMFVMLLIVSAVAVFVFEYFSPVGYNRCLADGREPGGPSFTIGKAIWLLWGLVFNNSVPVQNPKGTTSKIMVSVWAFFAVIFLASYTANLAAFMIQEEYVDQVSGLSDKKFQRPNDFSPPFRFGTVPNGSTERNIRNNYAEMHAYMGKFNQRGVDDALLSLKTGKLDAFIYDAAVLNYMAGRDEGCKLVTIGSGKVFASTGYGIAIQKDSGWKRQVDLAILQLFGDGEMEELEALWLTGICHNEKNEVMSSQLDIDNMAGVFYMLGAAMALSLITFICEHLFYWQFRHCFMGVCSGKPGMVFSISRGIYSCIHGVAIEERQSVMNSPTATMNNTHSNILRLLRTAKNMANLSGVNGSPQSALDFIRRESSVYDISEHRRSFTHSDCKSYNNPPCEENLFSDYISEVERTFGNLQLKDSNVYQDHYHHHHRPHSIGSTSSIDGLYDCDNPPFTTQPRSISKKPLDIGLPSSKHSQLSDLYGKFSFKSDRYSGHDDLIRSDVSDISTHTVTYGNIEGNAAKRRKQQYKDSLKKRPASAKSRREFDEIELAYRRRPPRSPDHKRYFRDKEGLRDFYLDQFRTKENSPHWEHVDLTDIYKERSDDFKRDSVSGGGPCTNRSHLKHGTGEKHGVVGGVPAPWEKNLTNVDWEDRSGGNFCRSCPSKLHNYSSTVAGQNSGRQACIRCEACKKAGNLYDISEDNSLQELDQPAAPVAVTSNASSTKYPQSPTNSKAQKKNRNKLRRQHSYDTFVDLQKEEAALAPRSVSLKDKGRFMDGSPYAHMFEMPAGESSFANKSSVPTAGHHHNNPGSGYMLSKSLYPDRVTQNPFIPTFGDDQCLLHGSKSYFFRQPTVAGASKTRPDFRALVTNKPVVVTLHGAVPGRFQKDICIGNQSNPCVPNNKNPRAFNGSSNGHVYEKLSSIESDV

| Molecule | IC50 [1] [µM] | Behavioural Test No Evidence of Toxicity [4] | pathway in open field [5] | locomotor activity over time [5] | Open Field Test No Evidence of Hyperlocomotion [5] | Sedative Effect The Rapid Onset of Sedation at a Dose of 100 mg/kg [5] | hyperlocomotion in open field [5] | maximum time avoiding the sector, fourth session of AAPA [6] | number of entries into the forbidden sector, fourth session of AAPA [6] | Passive Avoidance Test No Memory Violation [7] | further results |
| --- | --- | --- | --- | --- | --- | --- | --- | --- | --- | --- | --- |
| 5beta-pregnanolon-3alpha-yl 3-sulfate [3alfa,5beta-Pregnanolone sulfate] | 55 |  |  |  |  |  |  |  |  |  | mean inhibition effect (Mean % change ± SD) ([2]; listed as 5beta-pregnanolon-3alpha-yl 3-sulfate): 67%; mean inhibition effect (Mean % change ± SD) ([2]; listed as pregnanolone sulfate): 67.2±8.2%; mean inhibition effect [3]: 71.3±5.0% |
| C=C1CC[C@H]2[C@@H]3CC[C@@H]4C[C@H](OC(=O)CC(=O)O)CC[C@]4(C)[C@H]3CC[C@]12C [Compound 67, 3-(((3R,5R,8R,9S,10S,13S,14S)-10,13-Dimethyl-17-methylenehexadecahydro-1H-cyclo-penta[a]phenanthren-3-yl)oxy)-3-oxopropanoic acid] | 18.9 | + | significant reduction | significant decrease | + | + | not (unlike groups with dizocilpine) observed hyperlocomotion | significantly increased | significant reduction |  | inhibition at 20 µM [1, 9]: 53 ± 10.2% |
| C=C1CC[C@H]2[C@@H]3CC[C@@H]4C[C@H](OC(=O)CCC(=O)O)CC[C@]4(C)[C@H]3CC[C@]12C [Compound 68, 4-(((3R,5R,8R,9S,10S,13S,14S)-10,13-Dimethyl-17-methylenhexadecahydro-1H-cyclopenta[a]phenanthren-3-yl)oxy)-4-oxobutanoic acid] | 18.8 | + | significant reduction | significant decrease | + | + | not (unlike groups with dizocilpine) observed hyperlocomotion | tendency to increase | reduced number of entries | + | inhibition at 5 µM [1, 9]: 24.2 ± 14.3% |
| C=C1CC[C@H]2[C@@H]3CC[C@@H]4C[C@H](OC(=O)CCCC(=O)O)CC[C@]4(C)[C@H]3CC[C@]12C [Compound 69, 5-(((3R,5R,8R,9S,10S,13S,14S)-10,13-Dimethyl-17-methylenhexadecahydro-1H-cyclopenta[a]phenanthren-3-yl)oxy)-5-oxopentanoic acid] |  | + | significant reduction | significant decrease | + | + | not (unlike groups with dizocilpine) observed hyperlocomotion |  |  |  | inhibition at 20 µM [1, 9]: 62.9 ± 5.1%; NMDA lession Improvement in Cognition in AAPA after NMDA Lession ([6]; 1 mg/kg after NMDA lesion): −/+ |
| C[C@H]1CC[C@H]2[C@@H]3CC[C@@H]4C[C@H](OC(=O)[C@@H](N)CCC(=O)O)CC[C@]4(C)[C@H]3CC[C@]12C [Compound 81, (4S)-4-Amino-5-oxo-5-(((3R,5R,8S,9S,10S,13R,14S,17S)-10,13,17-trimethylhexadecahydro-1H-cyclopenta[a]phenanthren-3-yl)oxy)pentanoic acid] |  | + | significant reduction | significant decrease | + | + | not (unlike groups with dizocilpine) observed hyperlocomotion | tendency to increase | reduced number of entries | + | Forced Swimming Test Reduced Floating [8]: − |
| C/C=C1/CC[C@H]2[C@@H]3CC[C@@H]4C[C@H](OC(=O)CCC(=O)O)CC[C@]4(C)[C@H]3CC[C@]12C [Compound 84, 4-(((3R,5R,8R,9S,10S,13S,14S,Z)-17-Ethylidene-10,13-dimethylhexadecahydro-1H-cyclopenta[a]phenanthren-3-yl)oxy)-4-oxobutanoic acid] |  | + | significant reduction | significant decrease | + | + | not (unlike groups with dizocilpine) observed hyperlocomotion | tendency to increase | reduced number of entries | −/+ | memory impairment in the passive avoidance test ([7]; 1 mg/kg): Mild memory impairment |
| CNC1(c2ccccc2Cl)CCCCC1=O (centres unmarked) [ketamine, reference compound] |  |  |  |  |  |  |  |  |  |  | antidepressant effect (decrease of flotation) ([8]; reference substance ketamine (10 mg/kg)): showed antidepressant effect |
| CC12CC3CC(C)(C1)CC(N)(C3)C2 [memantine, reference compound] |  |  |  |  |  |  |  |  |  |  | maximum time avoidance, AAPA [6, 10]: tendency to increase; number of entries into the forbidden sector, AAPA [6, 10]: reduced number of entries |
